Test system: AMPK
Assay: AMPK activation assay (enzyme-linked immunosorbent assay)
Assay type: cell-based
Method: Compounds were assayed for their ability to activate AMPK using an enzyme-linked immunosorbent assay. Reagents and procedures for measuring AMPK activation are well known and kits for AMPK activation assays are commercially available.

Row | EC50 [nM] | Compound
1 | < 500 | O=C(NC1CCN(Cc2cc(F)cc(F)c2)CC1)c1ccc(C(=O)N2CCC(Oc3ccc(C(F)(F)F)cc3)CC2)cn1 [Compound 294, N-(1-(3,5-difluorobenzyl)piperidin-4-yl)-5-(4-(4-(trifluoromethyl)phenoxy)piperidine-1-carbonyl)picolinamide]
2 | < 500 | COc1ccc(C(=O)C2CCN(C(=O)c3ccc(C(=O)NC4CCN(Cc5ccc(C#N)cc5)CC4)nn3)CC2)cc1 [Compound 387, N-(1-(4-cyanobenzyl)piperidin-4-yl)-6-(4-(4-methoxybenzoyl)piperidine-1-carbonyl)pyridazine-3-carboxamide]
3 | < 500 | N#Cc1ccc(CN2CCC(NC(=O)c3ccc(N4CCC(Oc5ccc(C(F)(F)F)cc5)CC4)nn3)CC2)cc1 [Compound 361, N-(1-(4-cyanobenzyl)piperidin-4-yl)-6-(4-(4-(trifluoromethyl)phenoxy)piperidin-1-yl)pyridazine-3-carboxamide]
4 | < 500 | N#Cc1ccc(OC2CCN(C(=O)c3ccc(C(=O)NC4CCN(Cc5ccc(F)cc5)CC4)nc3)CC2)cc1 [Compound 200, 5-(4-(4-cyanophenoxy)piperidine-1-carbonyl)-N-(1-(4-fluorobenzyl)piperidin-4-yl)picolinamide]
5 | < 500 | N#Cc1ccc(CN2CC[C@H](NC(=O)c3ccc(C(=O)N4CCN(Cc5ccc(F)cc5)CC4)cn3)C2)cc1 [Compound 123, (S)-N-(1-(4-cyanobenzyl)pyrrolidin-3-yl)-5-(4-(4-fluorobenzyl)piperazine-1-carbonyl)picolinamide]
6 | < 500 | COc1ccc(CN2CCC(NC(=O)c3ccc(C(=O)N4CCC(Oc5ccc(F)cc5)CC4)cn3)CC2)cc1 [Compound 161, 5-(4-(4-fluorophenoxy)piperidine-1-carbonyl)-N-(1-(4-methoxybenzyl)piperidin-4-yl)picolinamide]
7 | < 500 | COc1ccc(C(=O)C2CCN(C(=O)c3ccc(C(=O)N[C@H]4CC[C@@H](Oc5ccc(C#N)cc5)CC4)nc3)CC2)cc1 [Compound 171, N-((cis)-4-(4-cyanophenoxy)cyclohexyl)-5-(4-(4-methoxybenzoyl)piperidine-1-carbonyl)picolinamide]
8 | < 500 | CC(=O)c1ccc(OC2CCN(C(=O)c3ccc(C(=O)NC4CCN(Cc5ccc(C#N)cc5)CC4)cn3)CC2)cc1 [Compound 390, 6-(4-(4-acetylphenoxy)piperidine-1-carbonyl)-N-(1-(4-cyanobenzyl)piperidin-4-yl)nicotinamide]
9 | < 500 | Cc1cc(CN2CCC(NC(=O)c3ccc(C(=O)N4CCN(Cc5ccc(F)cc5)CC4)cn3)CC2)ccc1F [Compound 50, 5-(4-(4-fluorobenzyl)piperazine-1-carbonyl)-N-(1-(4-fluoro-3-methylbenzyl)piperidin-4-yl)picolinamide]
10 | < 500 | COc1ccc(C(=O)C2CCN(C(=O)c3ccc(C(=O)N[C@@H]4CCN(Cc5ccc(C#N)cc5)C[C@@H]4F)cn3)CC2)cc1 (relative stereo) [Compound 454, N-((cis)-1-(4-cyanobenzyl)-3-fluoropiperidin-4-yl)-6-(4-(4-methoxybenzoyl)piperidine-1-carbonyl)nicotinamide]
11 | < 500 | N#Cc1ccc(Cn2cc(NC(=O)c3ccc(C(=O)N4CCN(Cc5ccc(F)cc5)CC4)cn3)cn2)cc1 [Compound 23, N-(1-(4-cyanobenzyl)-1H-pyrazol-4-yl)-5-(4-(4-fluorobenzyl)piperazine-1-carbonyl)picolinamide]
12 | < 500 | N#Cc1ccc(O[C@H]2CC[C@@H](NC(=O)c3ccc(C(=O)N4CCC(Oc5cccc(NC(=O)C6CC6)c5)CC4)nc3)CC2)cc1 [Compound 434, N-((cis)-4-(4-cyanophenoxy)cyclohexyl)-6-(4-(3-(cyclopropanecarboxamido)phenoxy)piperidine-1-carbonyl)nicotinamide]
13 | < 500 | COc1ccc(C(=O)C2CCN(C(=O)c3ccc(C(=O)NC4CCN(Cc5cccc(OC)c5)CC4)cn3)CC2)cc1 [Compound 425, 6-(4-(4-methoxybenzoyl)piperidine-1-carbonyl)-N-(1-(3-methoxybenzyl)piperidin-4-yl) nicotinamide]
14 | < 500 | N#Cc1ccc(CN2CCC(NC(=O)c3ccc(C(=O)N4CCC(C(=O)c5ccc(N=[N+]=[N-])cc5)CC4)nc3)CC2)cc1 [Compound 240, 6-(4-(4-azidobenzoyl)piperidine-1-carbonyl)-N-(1-(4-cyanobenzyl)piperidin-4-yl)nicotinamide]
15 | > 10000 | O=C(NC1CCN(Cc2ccccc2)CC1)c1ccc(C(=O)N2CCN(c3ccncc3)CC2)cn1 [Compound 96, N-(1-benzylpiperidin-4-yl)-5-(4-(pyridin-4-yl)piperazine-1-carbonyl)picolinamide]
16 | < 500 | COc1ccc(CN2CCC(NC(=O)c3ccc(C(=O)N4CCC(Oc5ccc(S(C)(=O)=O)cc5)CC4)cn3)CC2)cc1 [Compound 202, N-(1-(4-methoxybenzyl)piperidin-4-yl)-5-(4-(4-(methylsulfonyl)phenoxy)piperidine-1-carbonyl)picolinamide]
17 | < 500 | COc1ccc(OC2CCN(C(=O)c3ccc(C(=O)Nc4ccc(Oc5ccc(F)cc5)nc4)nc3)CC2)cc1 [Compound 70, 5-(4-(4-methoxyphenoxy)piperidine-1-carbonyl)-N-(6-(4-fluorophenoxy)pyridin-3-yl)picolinamide]

Row | EC50 [nM] | Compound
18 | < 500 | N#Cc1ccc(OC2CCN(C(=O)c3ccc(C(=O)NC4CCN(Cc5ccc(N6CCCC6)cc5)CC4)cn3)CC2)cc1 [Compound 336, 6-(4-(4-cyanophenoxy)piperidine-1-carbonyl)-N-(1-(4-(pyrrolidin-1-yl)benzyl)piperidin-4-yl)nicotinamide]
19 | < 500 | N#Cc1ccc(CN2CCC(NC(=O)c3ccc(C(=O)N4CCC(Oc5ccc(C#N)c(Cl)c5)CC4)cn3)CC2)cc1 [Compound 156, 5-(4-(3-chloro-4-cyanophenoxy)piperidine-1-carbonyl)-N-(1-(4-cyanobenzyl)piperidin-4-yl)picolinamide]
20 | < 500 | N#Cc1ccc(CN2CCC(NC(=O)c3ccc(C(=O)N4CCN(c5ccc(C(=O)C6CC6)cc5)CC4)cn3)CC2)cc1 [Compound 258, N-(1-(4-cyanobenzyl)piperidin-4-yl)-5-(4-(4-(cyclopropanecarbonyl)phenyl)piperazine-1-carbonyl)picolinamide]
21 | 1000 to 5000 | CCOC(=O)C(c1ccccc1)N1CCC(NC(=O)c2ccc(C(=O)N3CCN(Cc4ccc(F)cc4)CC3)cn2)CC1 (stereo not drawn) [Compound 98, ethyl 2-(4-(5-(4-(4-fluorobenzyl)piperazine-1-carbonyl)picolinamido)piperidin-1-yl)-2-phenylacetate]
22 | < 500 | CS(=O)(=O)c1ccc(OC2CCN(C(=O)c3cnc(C(=O)NC4CCN(Cc5ccc(C#N)cc5)CC4)cn3)CC2)cc1 [Compound 218, N-(1-(4-cyanobenzyl)piperidin-4-yl)-5-(4-(4-(methylsulfonyl)phenoxy)piperidine-1-carbonyl)pyrazine-2-carboxamide]
23 | < 500 | N#Cc1ccc(CN2CCC(NC(=O)c3ccc(C(=O)N4CCN(c5ccc(S(=O)(=O)C6CC6)cc5)CC4)cn3)CC2)cc1 [Compound 256, N-(1-(4-cyanobenzyl)piperidin-4-yl)-5-(4-(4-(cyclopropylsulfonyl)phenyl)piperazine-1-carbonyl)picolinamide]
24 | 1000 to 5000 | COc1ccc(OC2CCN(C(=O)c3ccc(C(=O)NC4CCN(Cc5ccc(C#N)cc5)CC4)cn3)CC2)c(NS(C)(=O)=O)c1 [Compound 389, N-(1-(4-cyanobenzyl)piperidin-4-yl)-6-(4-(4-methoxy-2-(methylsulfonamido)phenoxy)piperidine-1-carbonyl)nicotinamide]
25 | < 500 | N#Cc1ccc(O[C@H]2CC[C@@H](NC(=O)c3ccc(C(=O)N4CCN(Cc5ccc(F)cc5)CC4)cn3)CC2)cc1 [Compound 150, N-(cis-4-(4-cyanophenoxy)cyclohexyl)-5-(4-(4-fluorobenzyl)piperazine-1-carbonyl)picolinamide]
26 | < 500 | COc1ccc(CN2CCN(C(=O)c3ccc(C(=O)NC4CCN(Cc5ccc(C#N)cc5)CC4)nc3)CC2)cc1 [Compound 101, N-(1-(4-cyanobenzyl)piperidin-4-yl)-5-(4-(4-methoxybenzyl)piperazine-1-carbonyl)picolinamide]
27 | < 500 | N#Cc1ccc(CN2CCC(NC(=O)c3ccc(C(=O)N4CCN(Cc5ccc(F)cc5)CC4)nc3)CC2)cc1 [Compound 1]
28 | > 10000 | N#Cc1ccc(OC2CCN(C(=O)c3ccc(C(=O)NC4CCNCC4)cn3)CC2)cc1 [Compound 335, 6-(4-(4-cyanophenoxy)piperidine-1-carbonyl)-N-(piperidin-4-yl) nicotinamide]
29 | < 500 | N#Cc1ccc(CN2CCC(NC(=O)c3ccc(C(=O)N4CCCC(Oc5ccc(C#N)cc5)C4)cn3)CC2)cc1 (stereo not drawn) [Compound 137, N-(1-(4-cyanobenzyl)piperidin-4-yl)-5-(3-(4-cyanophenoxy)piperidine-1-carbonyl)picolinamide]
30 | < 500 | N#Cc1ccc(CN2CCC(NC(=O)c3ccc(C(=O)N4CCC(C(=O)c5ccc(N6CCCC6)cc5)CC4)nc3)CC2)cc1F [Compound 447, N-(1-(4-cyano-3-fluorobenzyl)piperidin-4-yl)-6-(4-(4-(pyrrolidin-1-yl)benzoyl)piperidine-1-carbonyl)nicotinamide]
31 | < 500 | CCOC(=O)c1ccc(OC2CCN(C(=O)c3ccc(C(=O)NC4CCN(Cc5ccc(C#N)cc5)CC4)nc3)CC2)cc1 [Compound 284, ethyl 4-(1-(6-(1-(4-cyanobenzyl)piperidin-4-ylcarbamoyl)nicotinoyl)piperidin-4-yloxy)benzoate]
32 | < 500 | N#Cc1ccc(OC2CCN(C(=O)c3ccc(C(=O)NC4CCN(Cc5nccs5)CC4)cn3)CC2)cc1 [Compound 356, 6-(4-(4-cyanophenoxy)piperidine-1-carbonyl)-N-(1-(thiazol-2-ylmethyl)piperidin-4-yl)nicotinamide]
33 | < 500 | O=C(Nc1ccc(Oc2ccc(F)cc2)nc1)c1ccc(C(=O)N2CCC(F)(C(=O)c3ccc(F)cc3)CC2)cn1 [Compound 67, 5-(4-(4-fluoro-4-fluorobenzoyl)piperidine-1-carbonyl)-N-(6-(4-fluorophenoxy)pyridin-3-yl)picolinamide]
